Results taken from patent US12173349B2, “Lung protease nanosensors and uses thereof” (Massachusetts Institute of Technology, priority 2018, dated 2024).
“Also recorded” adds a separate entry of the source. Where no end group is shown, it is not given here. [ ]: non-standard residue; d: D form. F+10 = not defined here; A+4 = not defined here; G+2 = not defined here; G+3 = not defined here

Columns and labels:
PA01 supernatant = test: cleavage of FRET-paired substrates by bacterial supernatant; type: biochemical, Pseudomonas aeruginosa; details: added to PA01 supernatant
Description: The specificity of LAS and ELA for P. aeruginosa cleavage was tested by collecting supernatants from PA01 or Staphylococcus aureus cultures and incubating them with FRET-paired substrates LAS-Q and ELA-Q in 384 well plates. […] To investigate whether the LAS and ELA substrates are also susceptible to cleavage by host proteases, each was incubated with recombinant mouse proteases.
Supernatant from PA01 and S. aureus were collected and added to substrates in 384 well plates and dequenching of FAM was monitored at 37° C. (Tecan). Fluorescence change at 30 minutes was reported. For recombinant protease assays, enzyme was added to the substrates in enzyme-specific buffer (MMP7 & 9 buffer: 50 mM Tris, 150 mM NaCl, 5 mM CaCl2), […], pH 7.5; Thrombin: PBS; NE: 100 mM HEPES, 500 mM NaCl, 0.05% Tween 20) in a 384 well plate for time-lapse fluorimetry to measure dequenching at 37° C. (Tecan).

[1] = system: P. aeruginosa strain PA01 lung infection; test: histology and immunofluorescence of lung sections after antibiotic treatment; type: in vivo, mice
Description: To test whether inflammation remained after antibiotic therapy, histological and immunofluorescence analysis of lung sections were performed from infected and treated mice. […] The robust diagnostic capability of ELA to identify infection but poor ability to monitor treatment, paired with the robust ability for LAS to specifically monitor treatment highlights the importance of multiplexing and measuring both host and pathogen factors.
Individual responses to antimicrobial treatment can be highly variable, dependent upon the strain of pathogen and the presence of antibiotic resistance, and current clinical tests take 24-72 hours to identify antibiotic susceptibility (Caliendo et al., Clin Infect Dis, 57, S139, 2013). In addition, current clinical tests used to visualize lung infections (e.g., chest X-ray and computed tomography) are often unable to distinguish active infections from those that have been adequately treated until several weeks after antibiotic therapy is complete, because the airspace opacifications characteristic of pneumonia remain apparent on routine radiography screens (Bruns et al., J Gen Intern Med, 25, 203, 2010). Therefore, the ability of the infection-tracking ABNs to identify successful versus insufficient treatment on an acute time-scale shortly after therapeutic initiation was sought to be evaluated. Only 5 hours after establishing lung infections with PA01, antibiotic treatment was initiated with either ciprofloxacin (efficacious against P. aeruginosa) or doxycycline (ineffective against gram-negative bacteria including P. aeruginosa) (FIG. 13A). The following day, multiplexed LAS-E and ELA-E ABNs were administered and urine was collected. […] The persistent Pseudomonas immunostaining observed following ciprofloxacin treatment might be derived from residual Pseudomonas antigens remaining from lysed bacteria that had not yet been cleared by the immune system. Alternatively, the reduced LAS sensor reading in these treated mice could reflect a suppression of LasA secretion from bacteria as they are killed by the potent antibiotic.
All animal studies were approved by Massachusetts Institute of Technology's Committee on Animal Care. For infection studies, 5-7 week old female CD-1 mice were innoculated intratracheally with 1.25×10^6 CFU of P. aeruginosa strain PA01 in 50 μL of PBS. Bacteria were cultured overnight in LB broth, then subcultured and grown to log phase (OD600≈0.5). Bacteria were pelleted, washed with sterile PBS, and then resuspended to the requisite concentration for intratracheal administration. Mice were administered buprenorphine and meloxicam several hours after infection. For antibiotic treatment studies, mice were injected intraperitoneally with 40 mg/kg ciprofloxacin or 30 mg/kg doxycycline twice per day for up to 6 days.
Animals were perfused with PBS followed by 10% formalin solution. The lungs were resected and fixed in formalin before paraffin embedding and sectioning. […] Fluorescence images were acquired on a Perkin Elmer Pannoramic250. Quantification of neutrophil signal was completed by capturing 3-5 representative fields from each stained lung section and counting positive cells. Quantification of pseudomonas signal was completed by capturing 3-5 representative fields from each stained lung section and measuring total positive area after uniform thresholding of each single-channel fluorescence image (ImageJ).

[2] = system: 15 proteases in the LUAD protease panel; test: in vitro recombinant protease screen of FRET-paired substrates; type: biochemical; details: fluorescence fold change at 45 minutes; 1 μM substrate, 12.5 nM recombinant enzyme; MP metallo-, SP serine, AP aspartic protease
Description: Hundreds of peptide sequences have been previously designed and validated as protease substrates, leveraging known catalytic specificities of different protease families, published datasets and substrate sequences in databases like cutDB and MEROPS (Igarashi et al., Nucleic Acids Res 35, D546-549, 2007; Rawlings et al., Nucleic Acids Res 46, D624-D632, 2018). Fourteen of these substrates were nominated in an effort to cover the specificity profiles of metallo-, serine and aspartic endoproteases, all of which were included in the LUAD protease panel, and the catalytic activity of each protease-substrate pair was characterized. Quenched probes that incorporated the 14 peptide substrates were synthesized such that they fluoresce upon proteolytic cleavage to enable real-time monitoring of protease activity in vitro (FIG. 3A and Table 2). Each probe was incubated with each protease in the panel and fluorescence was monitored over 45 minutes. Shown are sample kinetic plots monitoring dequenching of the 14 FRET-paired probes when incubated with (above) and without (below) recombinant matrix metalloproteinase 3 (MMP3) (FIG. 3B). […] See also FIG. 19.
Fluorogenic protease substrates were synthesized by CPC Scientific. Recombinant proteases were purchased from Enzo Life Sciences, R&D Systems and Haematologic Technologies. For recombinant protease assays, fluorogenic substrates PPQ1-14 (1 μM final concentration) were incubated in 30 μL final volume in appropriate enzyme buffer, according to manufacturer specifications, with 12.5 nM recombinant enzyme at 37° C. (FIG. 3). Proteolytic cleavage of substrates was quantified by increases in fluorescence over time by fluorimeter (Tecan Infinite M200 Pro). Enzyme cleavage rates were quantified as relative fluorescence increase over time normalized to fluorescence before addition of protease. Hierarchical clustering was performed in GENE-E, using fluorescence fold changes at 45 minutes.

[3] = system: Kras and p53 mutant lung adenocarcinoma (KP mice); test: urinary ABN readout and random forest classification in KP lung adenocarcinoma model; type: in vivo
Description: To characterize ABN performance in vivo, 14 protease-sensitive ABNs were administered to KP mice and healthy, age and sex-matched controls at 5, 7.5 and 10.5 weeks after tumor initiation. Mouse bladders were voided one hour after intrapulmonary delivery and all fresh urine produced during the subsequent hour (from 60-120 minutes after administration) was pooled and collected. LC-MS/MS was performed and peak area ratios (defined as peak area of urinary reporter divided by peak area of spiked-in internal standard) of protease-sensitive reporters were mean-normalized within each sample to reduce mouse-to-mouse variation.
A random forest classifier was then sought to be built to enable prospective diagnosis of lung cancer in KP mice. Random forest is a high-performance classifier, applicable to a wide variety of classification tasks, that generates a collection of decision trees (a “forest”) that are sampled to produce classification results (Breiman, Machine Learning 45, 5-32, 2001). A random forest classifier was trained using 50% of control mice at 5 weeks, 7.5 weeks and 10.5 weeks, as well as 50% of KP mice at 7.5 weeks (FIG. 6A). The classifier assigned a probability that each mouse belonged to either the KP cohort or the healthy control cohort (FIG. 6B, “Training” panel), achieving perfect separation of control and KP mice. The classifier was then sought to be tested on an independent validation cohort consisting of classifier-naive KP mice at 5 weeks, 7.5 weeks and 10.5 weeks post-induction, as well as the remaining control mice from each time point.
Male B6/SV129 Kras^LSL-G12D/+; Trp53^fl/fl (KP) mice between 18 and 30 weeks old were used for lung adenocarcinoma experiments. Tumors were initiated, as described previously (DuPage et al., Nat Protoc 4, 1064-1072 (2009)), by the intratracheal administration of 50 μL of adenovirus-SPC-Cre (2.5×10^8 PFU in Opti-MEM with 10 mM CaCl2)) under isoflurane anesthesia. […] Tumor growth was monitored by micro computed tomography (microCT) imaging (General Electric) and was scored by a blinded radiation oncologist using MicroView (Parallax Innovations) (Table 4). Tumor volumes were calculated by using the ROI sphere/elliptical tool.
ABN constructs (GluFib-Substrate-PEG-840 kDa) for urinary experiments were synthesized by CPC Scientific (Sunnyvale, CA). ABNs were dosed (50 μL total volume, 20 μM concentration per ABN) by intratracheal intubation, as described above. Bladders were voided 60 minutes after ABN administration and all urine produced 60-120 min after ABN administration was collected using custom tubes in which the animals rest upon 96-well plates that capture urine. Urine was pooled and frozen at −80° C. until analysis by LC-MS/MS.
Liquid chromatography/tandem mass spectrometry was performed by Syneos Health (Princeton, NJ) using a Sciex 6500 triple quadrupole instrument. Briefly, urine samples were treated with UV irradiation to photocleave the ANP linker and liberate the Glu-Fib reporter from residual peptide fragments. Samples were extracted by solid-phase extraction and analyzed by multiple reaction monitoring by LC-MS/MS to quantify concentration of each Glu-Fib mass variant. Analyte quantities were normalized to a spiked-in internal standard and concentrations were calculated from a standard curve using peak area ratio (PAR) to the internal standard. Mean normalization was performed on PAR values to account for mouse-to-mouse differences in ABN inhalation efficiency and urine concentration.
Principal component analysis (PCA) was performed on mean normalized PAR values in the R statistical environment (Team, R.C. R, R Foundation for Statistical Computing, Vienna, Austria, 2017) using the prcomp function. Binary classification was performed using the Caret package (Kuhn, M. caret: Classification and Regression Training. (2017)) in the R statistical environment). […]

[4] = 24 hours post-infection, after 19 hours of antibiotic therapy

| Compound | protease class(es) cleaving the substrate in vitro [2] | urinary reporter enrichment relative to healthy controls ([3]; KP7.5 wk urine) | urinary reporter enrichment relative to healthy controls ([3]; KP10.5 wk urine) | also measured |
| --- | --- | --- | --- | --- |
| [Cl-].[Cl-].[Zn+2] [ZnCl2, reference compound] | – | – | – | effect on cleavage signal of LAS-Q and ELA-Q (PA01 supernatant): suppressed the cleavage signal |
| O=C(O)c1cn(C2CC2)c2cc(N3CCNCC3)c(F)cc2c1=O [ciprofloxacin] | – | – | – | decrease of Pseudomonas immunofluorescent signal compared to the doxycycline-treated group [1, 4]: ~60%; lung inflammation and neutrophils [1, 4]: marked lung inflammation and elevated neutrophils; Pseudomonas immunofluorescence signal in lungs of infected mice relative to uninfected or ciprofloxacin-treated mice ([1]; 4 day course of ciprofloxacin, 40 mg/kg intraperitoneally twice per day): 7-9 fold; Pseudomonas in lung sections after treatment ([1]; histology and immunofluorescent staining after ciprofloxacin course): no Pseudomonas; decrease in neutrophil count in lungs after antibiotic treatment ([1]; relative to infected mice): ~30% |
| PP03: ABN: reporter e(+3G)(+1V)ndneeGFFs(+4A)r, ANP, substrate PVPLSLVM, nanocarrier PEG8-40 kDa (chain 1 [dE]G[+1V][dN][dD][dN][dE][dE]GFF[dS][+4A][dR]; not fully specified (some residues); printed as PP03: ABN: reporter e(+3G)(+1V)ndneeGFFs(+4A)r, ANP, substrate PVPLSLVM, nanocarrier PEG8-40 kDa; also: ANP photolabile linker, PEG8-40 kDa nanocarrier, linkage of reporter, ANP, substrate and carrier not given here) | metalloproteases or both metalloproteases and aspartic proteases | enriched | enriched | – |
| PP09: ABN: reporter eGVndneeGF(+10F)s(+4A)r, ANP, substrate KPISLISSG, nanocarrier PEG8-40 kDa (chain 1 [dE]GV[dN][dD][dN][dE][dE]GF[+10F][dS][+4A][dR]; also: ANP photolabile linker, PEG8-40 kDa nanocarrier, linkage of reporter, ANP, substrate and carrier not given here) | metalloproteases or both metalloproteases and aspartic proteases | enriched | enriched | – |
| PP11: ABN: reporter e(+3G)(+1V)ndnee(+2G)(+10F)Fs(+4A)r, ANP, substrate SGSKIIGGG, nanocarrier PEG8-40 kDa (chain 1 [dE][G+3][V+1][dN][dD][dN][dE][dE][G+2][F+10]F[dS][A+4][dR]; reading uncertain; also: ANP photolabile linker, attachment not given here, PEG8-40 kDa nanocarrier, attachment not given here, how reporter and substrate are joined not given here, printed as PP11: ABN: reporter e(+3G)(+1V)ndnee(+2G)(+10F)Fs(+4A)r, ANP, substrate SGSKIIGGG, nanocarrier PEG8-40 kDa) | serine protease-sensitive; also recorded: only by serine proteases | – | most significantly enriched | – |
